Experimental data as given in patent publication US9388139B2, “Derivatives of celeboxib, use thereof and preparation thereof” (German University, priority 2011, dated 2016).

Legend:
Test in all cases: Tumor cell growth inhibition panel
Type in all cases: cell-based
DU-145 = conditions: Homo sapiens, Prostate
Protocol: (§1) Thus, compound 12 is able to show broad spectrum tumor cell growth inhibitory activity independent of cyclooxygenase inhibition, whereas PDE5 may be the major contributor to such activity.
(§2) The human tumor cell lines were purchased from the American Type Culture Collection (Mansassas, Va.) and maintained in RPMI-1640+2.0 g/L glucose pH 7.4+5% FBS+4 mM glutamine (complete growth medium), incubated at 37° C. in 5% CO2, and passaged at subconfluent density. The human fetal colon FHC cells were cultured in DMEM:F12 medium supplemented with 10% FBS, cholera toxin (10 ng/mL), 5 μg/ml transferrin, 5 μg/ml insulin, and 100 ng/ml hydrocortisone. The passage number was routinely limited to approximately 20 and morphology monitored with each passage, but no additional authentication of the cell lines was performed.
(§3) Cells were plated in 96-well microtiter plates at a density of 5,000 cells per well and allowed to adhere overnight prior to treatment. Cells were treated with a 2-log concentration range of either SS or SBA and incubated for an additional 72 hours. For siRNA assays, cells were transfected in OptiMEM media with 0.5% SureFECT transfection reagent and 200 nmol/L of either negative control or PDE5 siRNA and incubated at 37° C. for 24 h prior to treatment. At the end of the incubation period, relative cell viability was compared to vehicle controls using the Cell Titer Glo Assay (Promega, Madison Wis.), which measures viable cells based on ATP content, according to the manufacturer's specifications.

MALME-3M = conditions: Homo sapiens, Melanoma
Protocol: as §1, §2, §3

BT-549 = conditions: Homo sapiens, Breast
Protocol: as §1, §2, §3

NCI-H460 = conditions: Homo sapiens, Lung
Protocol: as §1, §2, §3

COL0205 = conditions: Homo sapiens, Colon
Protocol: as §1, §2, §3

HL-60 (TB) = conditions: Homo sapiens, Hematopoietic
Protocol: as §1, §2, §3

EKVX = conditions: Homo sapiens, Lung
Protocol: as §1, §2, §3

MDA-MB-468 = conditions: Homo sapiens, Breast
Protocol: as §1, §2, §3

M14 = conditions: Homo sapiens, Melanoma
Protocol: as §1, §2, §3

NCI-H23 = conditions: Homo sapiens, Lung
Protocol: as §1, §2, §3

IGROV-1 = conditions: Homo sapiens, Ovarian
Protocol: as §1, §2, §3

SF-268 = conditions: Homo sapiens, CNS
Protocol: as §1, §2, §3

786-0 = conditions: Homo sapiens, Renal
Protocol: as §1, §2, §3

MDA-MB-231 = conditions: Homo sapiens, Breast
Protocol: as §1, §2, §3

SW-620 = conditions: Homo sapiens, Colon
Protocol: as §1, §2, §3

UO-31 = conditions: Homo sapiens, Renal
Protocol: as §1, §2, §3

SF-295 = conditions: Homo sapiens, CNS
Protocol: as §1, §2, §3

PC-3 = conditions: Homo sapiens, Prostate
Protocol: as §1, §2, §3

RXF-393 = conditions: Homo sapiens, Renal
Protocol: as §1, §2, §3

TK-10 = conditions: Homo sapiens, Renal
Protocol: as §1, §2, §3

SK-MEL-2 = conditions: Homo sapiens, Melanoma
Protocol: as §1, §2, §3

SN12C = conditions: Homo sapiens, Renal
Protocol: as §1, §2, §3

UACC-62 = conditions: Homo sapiens, Melanoma
Protocol: as §1, §2, §3

KM12 = conditions: Homo sapiens, Colon
Protocol: as §1, §2, §3

T-47D = conditions: Homo sapiens, T47D, Breast
Protocol: as §1, §2, §3

A498 = conditions: Homo sapiens, Renal
Protocol: as §1, §2, §3

CCFR-CEM = conditions: Homo sapiens, Hematopoietic
Protocol: as §1, §2, §3

U251 = conditions: Homo sapiens, U-251, CNS
Protocol: as §1, §2, §3

MOLT-4 = conditions: Homo sapiens, Hematopoietic
Protocol: as §1, §2, §3

HCT-15 = conditions: Homo sapiens, Colon
Protocol: as §1, §2, §3

HOP-62 = conditions: Homo sapiens, Lung
Protocol: as §1, §2, §3

Hs578T = conditions: Homo sapiens, Hs-578T, Breast
Protocol: as §1, §2, §3

MDA-MB-435 = conditions: Homo sapiens, Melanoma
Protocol: as §1, §2, §3

OVCAR-8 = conditions: Homo sapiens, Ovarian
Protocol: as §1, §2, §3

MCF-7 = conditions: Homo sapiens, MCF7, Breast
Protocol: as §1, §2, §3

NCI-H322M = conditions: Homo sapiens, Lung
Protocol: as §1, §2, §3

CAKI-1 = conditions: Homo sapiens, Renal
Protocol: as §1, §2, §3

RPMI-8226 = conditions: Homo sapiens, Hematopoietic
Protocol: as §1, §2, §3

OVCAR-3 = conditions: Homo sapiens, Ovarian
Protocol: as §1, §2, §3

OVCAR-5 = conditions: Homo sapiens, Ovarian
Protocol: as §1, §2, §3

HOP-92 = conditions: Homo sapiens, Lung
Protocol: as §1, §2, §3

HCT-116 = conditions: Homo sapiens, Colon
Protocol: as §1, §2, §3

SF-539 = conditions: Homo sapiens, CNS
Protocol: as §1, §2, §3

OVCAR-4 = conditions: Homo sapiens, Ovarian
Protocol: as §1, §2, §3

SR = conditions: Homo sapiens, Hematopoietic
Protocol: as §1, §2, §3

CC(C)(C)C1=NN(c2ccc(C(=O)O)cc2)C(c2ccc(Cl)cc2Cl)C1 (stereo not drawn) [Compound 12, 4-(3-(tert-Butyl)-5-(2,4-dichlorophenyl)-4,5-dihydro-1H-pyrazol-1-yl)benzoic acid]
IC50 (DU-145): 59.6 µM
IC50 (MALME-3M): 65.7 µM
IC50 (BT-549): 54.7 µM
IC50 (NCI-H460): 42.9 µM
IC50 (COL0205): 31.3 µM
IC50 (HL-60 (TB)): 34.5 µM
IC50 (EKVX): 57.2 µM
IC50 (MDA-MB-468): 58.5 µM
IC50 (M14): 62.9 µM
IC50 (NCI-H23): 40.6 µM
IC50 (IGROV-1): 59 µM
IC50 (SF-268): 41.1 µM
IC50 (786-0): 46.4 µM
IC50 (MDA-MB-231): 64.4 µM
IC50 (SW-620): 51.8 µM
IC50 (UO-31): 55.7 µM
IC50 (SF-295): 45.8 µM
IC50 (PC-3): 55.1 µM
IC50 (RXF-393): 46.7 µM
IC50 (TK-10): 74 µM
IC50 (SK-MEL-2): 44.5 µM
IC50 (SN12C): 50 µM
IC50 (UACC-62): 42.3 µM
IC50 (KM12): 34.7 µM
IC50 (T-47D): 63 µM
IC50 (A498): 33 µM
IC50 (CCFR-CEM): 33.1 µM
IC50 (U251): 33.3 µM
IC50 (MOLT-4): 20.7 µM
IC50 (HCT-15): 40.3 µM
IC50 (HOP-62): 37.4 µM
IC50 (Hs578T): 48.9 µM
IC50 (MDA-MB-435): 50.8 µM
IC50 (OVCAR-8): 45.8 µM
IC50 (MCF-7): 52.4 µM
IC50 (NCI-H322M): 49.8 µM
IC50 (CAKI-1): 87 µM
IC50 (RPMI-8226): 23.2 µM
IC50 (OVCAR-3): 37.8 µM
IC50 (OVCAR-5): 59.4 µM
IC50 (HOP-92): 52.8 µM
IC50 (HCT-116): 39 µM
IC50 (SF-539): 52.9 µM
IC50 (OVCAR-4): 54.9 µM
IC50 (SR): 43 µM
